# Data reported in patent US12234222B2, “Piperazine amide derivative, preparation method therefor, and use thereof in medicine” (ZHEJIANG HISUN PHARMACEUTICAL CO., LTD., priority 2019, dated 2025).
# Experiments:
# [1] = target: Human RET protein (RET kinase) (Homo sapiens (Human), UniProt P07949); experiment: RET kinase activity, HTRF KinEASE-TK TR-FRET assay; type: biochemical; conditions: inhibition of RET kinase; 9 concentrations 3200 nM~0.008 nM, 2% DMSO
# Protocol: Test Example 1. Determination of the Activity of the Compound of the Present Disclosure on RET Kinase
# (§1) In this method, HTRF®KinEASE-TK Tyrosine Kinase Kit (Cat. No. 62TK0PEB) of Cisbio was used to determine the degree of phosphorylation of biotinylated polypeptide substrates by time-resolved fluorescence energy transfer (TR-FRET). Human RET protein (RET kinase) was purchased from Carna bioscience (Japan, Cat. No. 08-159-5 μg).
# (§2) The experimental steps are as follows: • (1) The test compound (the compound of the present disclosure, and compound 164 in WO2018017983A1 as a control) was dissolved in 100% DMSO to a final concentration of 10 mM. • (2) 4 μL of the test compound solution prepared in step (1) was dissolved with 46 μL of 100% DMSO, and the solution obtained in this step was numbered as No. 2. • (3) No. 2 solution was subjected to subsequent gradient dilution with a dilution factor of 5 times (i.e. 20 μL of 100% DMSO was added to 5 μL of the compound), a total of 9 gradients, numbered 3 to 11.
# Note: No. 2 was not used for the dilution in step (4).
# (§3) (Unless otherwise specified, the following steps need to be carried out on ice) • (4) The buffer provided in the kit (Cisbio, Cat. No. 62TK0PEB) was used to continuously serially dilute the solutions numbered from 3 to 11 with a dilution factor of 20 times (that is, adding 19 μL of buffer to the solutions numbered from 3 to 11). At this time, the final concentration range of the test compound in the system No. 3 to 11 was 3200 nM˜0.008 nM (9 gradients), and the final concentration of DMSO was 2%. • (5) 9 compound solutions of gradient concentration in step (4) were added into a 384-well plate in order according to their concentration at 4 μL per well, and two duplicate wells were set. • (6) 2 μL of human RET protein was added to each well and incubated on ice for 10 minutes. • (7) 2 μL of ATP (Sigma #A7699) and 2 μL of biotinylated polypeptide substrate (Cisbio, Cat. No. 62TK0PEB) were added to each well to start the phosphorylation reaction, and incubated at 37° C. for half an hour. • (8) 5 μL of anti-phosphotyrosine antibody coupled with europium compound (provided in the kit, Cat. No. 62TK0PEB) and 5 μL of streptavidin coupled with modified allophycocyanin XL665 (Cisbio, Cat. No. 62TK0PEB) were added to each well. • (9) The plate was continued to incubate for 1 hour at room temperature. After the incubation, the TF-FRET mode of the microplate reader (BMG Labtech, model: FLUOStar Omega) was adopted to measure the fluorescence intensity at an excitation wavelength of 304 nm and emission wavelengths of 615 nm and […] in each well. The ratio would be calculated automatically. • (10) By comparing the fluorescence intensity ratio in the control group, the inhibition rate of the compound at each concentration was calculated, and GraphPad Prism 5 was used to perform curve fitting with logarithmic concentration-inhibition rate to calculate the IC50 value of the compound.
# KDR kinase = KDR kinase (Homo sapiens (Human), UniProt P35968); experiment: KDR control kinase activity, HTRF KinEASE-TK TR-FRET assay; type: biochemical; conditions: inhibition of KDR kinase; 16000 nM~0.04 nM, 2% DMSO
# Protocol: as §1, §2, §3
# The selected control kinase is another receptor tyrosine kinase, KDR, with similar structure to RET kinase, purchased from Carna bioscience (Japan, Cat. No. 08-191-5 μg). The step of gradient dilution was the same as that of RET kinase, and the final concentration range of the test compound in the reaction system was 16000 nM˜0.04 nM (No. 2-10 solutions were used for the gradient dilution in step 4). Other reaction conditions were the same as above, and the final concentration of DMSO was 2%. The calculation method for the IC50 value of KDR kinase inhibition by the test compound was the same as the calculation method for the IC50 value of RET kinase inhibition.
# Chain of KDR kinase (P35968 20-1356): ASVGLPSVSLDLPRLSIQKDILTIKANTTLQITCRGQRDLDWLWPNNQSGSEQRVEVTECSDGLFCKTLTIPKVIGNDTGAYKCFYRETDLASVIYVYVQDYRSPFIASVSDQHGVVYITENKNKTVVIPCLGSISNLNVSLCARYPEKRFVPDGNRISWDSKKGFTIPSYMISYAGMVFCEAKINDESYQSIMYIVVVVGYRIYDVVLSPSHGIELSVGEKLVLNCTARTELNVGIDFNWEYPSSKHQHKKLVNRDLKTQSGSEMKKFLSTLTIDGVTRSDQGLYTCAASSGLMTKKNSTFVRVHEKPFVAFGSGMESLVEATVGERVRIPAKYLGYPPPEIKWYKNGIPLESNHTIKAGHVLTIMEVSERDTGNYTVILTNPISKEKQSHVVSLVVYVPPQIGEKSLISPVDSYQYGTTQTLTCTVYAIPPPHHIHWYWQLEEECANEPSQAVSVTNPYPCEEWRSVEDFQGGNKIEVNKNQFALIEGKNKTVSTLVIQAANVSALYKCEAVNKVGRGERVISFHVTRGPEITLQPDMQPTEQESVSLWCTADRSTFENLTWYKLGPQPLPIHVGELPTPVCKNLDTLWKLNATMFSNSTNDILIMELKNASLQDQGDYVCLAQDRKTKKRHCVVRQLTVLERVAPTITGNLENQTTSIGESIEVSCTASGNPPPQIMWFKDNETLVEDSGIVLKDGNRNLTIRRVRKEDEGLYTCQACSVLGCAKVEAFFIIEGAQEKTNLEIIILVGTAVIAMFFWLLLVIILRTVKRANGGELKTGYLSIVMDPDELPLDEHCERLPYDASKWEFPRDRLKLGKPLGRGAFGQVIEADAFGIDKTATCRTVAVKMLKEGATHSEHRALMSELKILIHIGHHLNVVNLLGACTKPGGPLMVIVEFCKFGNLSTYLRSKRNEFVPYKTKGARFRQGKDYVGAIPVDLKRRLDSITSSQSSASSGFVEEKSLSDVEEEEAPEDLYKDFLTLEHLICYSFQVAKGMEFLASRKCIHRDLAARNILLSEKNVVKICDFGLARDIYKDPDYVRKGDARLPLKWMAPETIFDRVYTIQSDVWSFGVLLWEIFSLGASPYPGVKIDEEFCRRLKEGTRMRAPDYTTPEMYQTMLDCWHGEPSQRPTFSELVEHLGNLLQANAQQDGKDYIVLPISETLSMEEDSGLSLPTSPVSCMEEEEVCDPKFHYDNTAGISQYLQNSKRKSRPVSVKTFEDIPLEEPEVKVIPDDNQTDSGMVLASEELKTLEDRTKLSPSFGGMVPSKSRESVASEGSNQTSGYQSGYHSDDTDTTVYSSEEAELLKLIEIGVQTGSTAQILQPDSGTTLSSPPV
# Chain of Human RET protein (RET kinase) (P07949 29-1114): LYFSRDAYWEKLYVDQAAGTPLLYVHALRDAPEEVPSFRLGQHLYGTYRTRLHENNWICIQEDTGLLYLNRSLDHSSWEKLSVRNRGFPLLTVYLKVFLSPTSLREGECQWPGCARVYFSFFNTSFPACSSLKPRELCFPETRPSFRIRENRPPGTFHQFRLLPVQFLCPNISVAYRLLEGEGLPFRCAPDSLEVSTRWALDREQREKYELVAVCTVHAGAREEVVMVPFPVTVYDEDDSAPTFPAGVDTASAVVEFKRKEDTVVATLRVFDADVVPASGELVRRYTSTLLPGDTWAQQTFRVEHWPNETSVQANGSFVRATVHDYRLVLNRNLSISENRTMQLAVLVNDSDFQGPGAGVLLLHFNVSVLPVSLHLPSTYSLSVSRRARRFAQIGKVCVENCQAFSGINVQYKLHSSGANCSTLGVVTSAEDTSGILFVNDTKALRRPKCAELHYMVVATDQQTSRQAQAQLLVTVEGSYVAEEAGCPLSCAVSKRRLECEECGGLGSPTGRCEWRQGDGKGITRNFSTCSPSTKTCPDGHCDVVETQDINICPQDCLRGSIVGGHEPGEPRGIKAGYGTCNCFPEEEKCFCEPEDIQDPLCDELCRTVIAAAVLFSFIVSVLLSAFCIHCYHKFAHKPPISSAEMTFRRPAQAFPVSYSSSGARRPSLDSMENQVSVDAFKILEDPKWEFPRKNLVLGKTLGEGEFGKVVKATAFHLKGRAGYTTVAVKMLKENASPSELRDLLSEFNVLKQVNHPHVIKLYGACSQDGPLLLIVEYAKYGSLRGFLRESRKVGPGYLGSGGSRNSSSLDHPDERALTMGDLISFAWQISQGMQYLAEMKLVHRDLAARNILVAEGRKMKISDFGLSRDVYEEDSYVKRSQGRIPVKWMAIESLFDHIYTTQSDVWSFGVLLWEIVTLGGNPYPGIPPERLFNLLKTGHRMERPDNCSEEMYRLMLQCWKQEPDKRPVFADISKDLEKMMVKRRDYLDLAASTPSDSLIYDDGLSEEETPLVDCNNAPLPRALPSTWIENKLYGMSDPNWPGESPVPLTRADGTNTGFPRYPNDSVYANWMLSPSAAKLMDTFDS
SMILES,IC50 [1] [nM],IC50 (KDR kinase) [nM]
"Cc1cc(Nc2cc(C)[nH]n2)nc(N2CC3CCC(C2)N3C(=O)c2ccc(-n3cc(F)cn3)nc2)n1 [Compound I-4, (6-(4-fluoro-1H-pyrazol-1-yl)pyridin-3-yl)(3-(4-methyl-6-((5-methyl-1H-pyrazol-3-yl)amino)pyrimidin-2-yl)-3,8-diazabicyclo [3.2.1]octane-8-yl) methanone]",1.4,80
"Cc1cc(Nc2cc(C)[nH]n2)nc(N2CCN(C(=O)c3ccc(-n4cc(F)cn4)nc3)CC2)n1 [Compound I-1, (6-(4-fluoro-1H-pyrazol-1-yl)pyridin-3-yl)(4-(4-methyl-6-((5-methyl-1H-pyrazol-3-yl)amino)pyrimidin-2-yl)piperazin-1-yl)methanone]",12.5,1130
"Cc1cc(Nc2cc(C)[nH]n2)nc(N2CC3COCC(C2)N3C(=O)c2ccc(-n3cc(F)cn3)nc2)n1 [Compound I-7, (6-(4-fluoro-1H-pyrazol-1-yl)pyridin-3-yl)(7-(4-methyl-6-((5-methyl-1H-pyrazol-3-yl)amino)pyrimidin-2-yl)-3-oxa-7,9-diazabicyclo [3.3.1]nonane-9-yl)methanone]",10.3,391
Cc1cc(Nc2cc(C)[nH]n2)nc(N2C3CCC2CN(C(=O)c2ccc(-n4cc(C#N)cn4)nc2)C3)n1 [Compound I-9],8.6,304
"Cc1cc(Nc2cc(C)[nH]n2)nc(N2CC3CCC(C2)N3C(=O)c2ccc(-c3ccncc3)nc2)n1 [Compound I-28, [2,4′-bipyridin]-5-yl(3-(4-methyl-6-((5-methyl-1H-pyrazol-3-yl)amino)pyrimidin-2-yl)-3,8-diazabicyclo [3.2.1]octane-8-yl)methanone]",2.6,467
"Cc1cc(Nc2cc(C)[nH]n2)nc(N2CC3CCC(C2)N3C(=O)c2ccc(-c3cnn(C)c3)nn2)n1 [Compound I-22, (6-(1-methyl-1H-pyrazol-4-yl)pyridazin-3-yl)(3-(4-methyl-6-((5-methyl-1H-pyrazol-3-yl)amino)pyrimidin-2-yl)-3,8-diazabicyclo[3.2.1]octane-8-yl)methanone]",2,221
"Cc1cc(Nc2cc(C)[nH]n2)nc(N2CCC(C(=O)N[C@@H](C)c3ccc(-n4cc(F)cn4)nc3)CC2)c1 [Compound 164, reference compound]",73,2300
"COC(=O)c1cc(Nc2cc(C)[nH]n2)nc(N2CC3CCC(C2)N3C(=O)c2ccc(-n3cc(F)cn3)nc2)n1 [Compound I-11, Methyl 2-(8-(6-(4-fluoro-1H-pyrazol-1-yl)nicotinoyl)-3,8-diazabicyclo[3.2.1]octane-3-yl)-6-((5-methyl-1H-pyrazol-3-yl)amino)pyrimidin-4-carboxylate]",24.7,1020
"Cc1cc(Nc2cc(C(F)(F)F)nc(N3CC4CCC(C3)N4C(=O)c3ccc(-n4cc(F)cn4)nn3)n2)n[nH]1 [Compound I-16, (6-(4-fluoro-1H-pyrazol-1-yl)pyridazin-3-yl)(3-(4-((5-methyl-1H-pyrazol-3-yl)amino)-6-(trifluoromethyl)pyrimidin-2-yl)-3,8-diazabicyclo[3.2.1]octane-8-yl)methanone]",8,738
"Cc1cc(Nc2cc(C)[nH]n2)nc(N2CC3CCC(C2)N3C(=O)c2ccc(N3CC4C(C3)C4(C)C)nc2)n1 (centres unmarked) [Compound I-10, (6-(6,6-dimethyl-3-azabicyclo [3.1.0]hexane-3-yl)pyridin-3-yl)(3-(4-methyl-6-((5-methyl-1H-pyrazol-3-yl)amino)pyrimidin-2-yl)-3,8-diazabicyclo[3.2.1]octane-8-yl)methanone]",7.3,1550
"Cc1cc(Nc2cc(C(=O)O)nc(N3CC4CCC(C3)N4C(=O)c3ccc(-n4cc(F)cn4)nc3)n2)n[nH]1 [Compound I-19, 2-(8-(6-(4-fluoro-1H-pyrazol-1-yl)nicotinoyl)-3,8-diazabicyclo[3.2.1]octane-3-yl)-6-((5-methyl-1H-pyrazol-3-yl)amino)pyrimidin-4-formic acid]",25.6,2760
"Cc1cc(Nc2cc(C)[nH]n2)nc(N2C3CCC2CN(C(=O)c2ccc(-n4cc(F)cn4)nn2)C3)c1 [Compound I-30, (6-(4-fluoro-1H-pyrazol-1-yl)pyridazin-3-yl)(8-(4-methyl-6-((5-methyl-1H-pyrazol-3-yl)amino)pyridin-2-yl)-3,8-diazabicyclo[3.2.1]octane-3-yl)methanone]",1.8,95
"Cc1cc(Nc2cc(C)[nH]n2)nc(N2CC3CCC(C2)N3C(=O)c2ccc(-c3cnn(C)c3)nc2)n1 [Compound I-24, (6-(1-methyl-1H-pyrazol-4-yl)pyridin-3-yl)(3-(4-methyl-6-((5-methyl-1H-pyrazol-3-yl)amino)pyrimidin-2-yl)-3,8-diazabiciyclo [3.2.1]octane-8-yl) methanone]",8.1,374
"Cc1cc(Nc2nc(N3CC4CCC(C3)N4C(=O)c3ccc(-n4cc(F)cn4)nc3)nc3ccccc23)n[nH]1 [Compound I-5, (6-(4-fluoro-1H-pyrazol-1-yl)pyridin-3-yl)(3-(4-((5-methyl-1H-pyrazol-3-yl)amino)quinazoline-2-yl)-3,8-diazabicyclo[3.2.1]octane-8-yl)methanone]",6.2,149
"Cc1cc(Nc2cc(C)[nH]n2)nc(N2CC3CCC(C2)N3C(=O)c2ccc(-c3ccc(F)cc3)nc2)n1 [Compound I-25, (6-(4-fluorophenyl)pyridin-3-yl)(3-(4-methyl-6-((5-methyl-1H-pyrazol-3-yl)amino)pyrimidin-2-yl)-3,8-diazabicyclo[3.2.1]octane 8-yl)methanone]",5.6,260
"Cc1cc(Nc2cc(C)[nH]n2)nc(N2CC3CCC(C2)N3C(=O)c2ccc(-n3cc(F)cn3)nn2)n1 [Compound I-13, (6-(4-fluoro-1H-pyrazol-1-yl)pyridazin-3-yl)(3-(4-methyl-6-((5-methyl-1H-pyrazol-3-yl)amino)pyrimidin-2-yl)-3,8-diazabicyclo[3.2.1]octane-8-yl)methanone]",1.5,78
"Cc1cc(Nc2cc(CO)nc(N3CC4CCC(C3)N4C(=O)c3ccc(-n4cc(F)cn4)nc3)n2)n[nH]1 [Compound I-20, (6-(4-fluoro-1H-pyrazol-1-yl)pyridin-3-yl)(3-(4-(hydroxymethyl)-6-((5-methyl-1H-pyrazol-3-yl)amino)pyrimidin-2-yl)-3,8-diazabicyclo[3.2.1]octane-8-yl)methanone]",3,1550
"Cc1cc(Nc2cc(C)[nH]n2)nc(N2CCN(C(=O)c3ccc(-n4cc(F)cn4)nc3)C3(CC3)C2)n1 [Compound I-12, (6-(4-fluoro-1H-pyrazol-1-yl)pyridin-3-yl)(7-(4-methyl-6-((5-methyl-1H-pyrazol-3-yl)amino)pyrimidin-2-yl)-4,7-diazaspiro[2.5]octane-4-yl)methanone]",0.6,180
"Cc1cc(Nc2cc(C)[nH]n2)nc(N2CCN(C(=O)c3ccc(-n4cc(F)cn4)nc3)[C@@H](C)C2)n1 [Compound I-2, (S)-(6-(4-fluoro-1H-pyrazol-1-yl)pyridin-3-yl)(2-methyl-4-(4-methyl-6-((5-methyl-1H-pyrazol-3-yl)amino)pyrimidin-2-yl)piperazin-1-yl)methanone]",11.8,851
